Test results from ChEMBL document CHEMBL1159088, “Design, synthesis and biological evaluation of simplified analogues of the RNA polymerase inhibitor etnangien” (Bioorg Med Chem Lett, 2010).
Converted amounts (≈) assume the structure as drawn.

Key:
Micrococcus luteus = test: Antibacterial activity against Micrococcus luteus; assay type: functional
Staphylococcus aureus = test: Antibacterial activity against Staphylococcus aureus; assay type: functional
Mycolicibacterium phlei = test: Antibacterial activity against Mycobacterium phlei; assay type: functional
Saccharomyces cerevisiae = test: Antibacterial activity against Saccharomyces cerevisiae; assay type: functional
Escherichia coli = test: Antibacterial activity against Escherichia coli; assay type: functional
[1] = test system: Corynebacterium glutamicum; test: Antibacterial activity against Corynebacterium glutamicum; assay type: functional
[2] = Chemical stability at pH 7; assay type: physicochemical; details: buffer
[3] = Chemical stability at pH >10; assay type: physicochemical
[4] = Chemical stability after 48 hrs; assay type: physicochemical; details: read-out: Stability
[5] = Chemical stability at pH >3; assay type: physicochemical

MIC (Micrococcus luteus) [µg/mL] | MIC (Staphylococcus aureus) [µg/mL] | MIC (Mycolicibacterium phlei) [µg/mL] | MIC (Saccharomyces cerevisiae) [µg/mL] | MIC (Escherichia coli) [µg/mL] | MIC [1] [µg/mL] | Stability [2] | Stability [3] | remaining at 48 h [4] [%] | Stability [5] | Structure (SMILES)
> 20 | > 20 | 20 (≈ 30.7 µM) | > 20 | > 20 | 10 (≈ 15.4 µM) | – | – | – | – | CO[C@@H]1C/C=C\C=C\C[C@H](C)[C@H]2OC(C)(C)O[C@H]([C@H]2C)[C@H](C)[C@H](O)CC(=O)O[C@H]([C@H](C)[C@H](O)/C=C(C)/C=C/CO)C[C@H](O)CCC1
> 20 | > 20 | > 20 | > 20 | > 20 | 20 (≈ 31.5 µM) | – | – | – | – | COc1ccc(COC[C@@H](C)[C@@H](O)C[C@H]2CCC[C@H](OC)C/C=C\C=C\C[C@H](C)[C@@H](O)[C@H](C)[C@@H](O)[C@H](C)[C@H](O)CC(=O)O2)cc1
> 20 | > 20 | 20 (≈ 31.5 µM) | > 20 | > 20 | 10 (≈ 15.8 µM) | – | – | – | – | COc1ccc(COC[C@@H](C)[C@@H]2C[C@H](O)CCC[C@H](OC)C/C=C\C=C\C[C@H](C)[C@@H](O)[C@H](C)[C@@H](O)[C@H](C)[C@H](O)CC(=O)O2)cc1
0.39 (≈ 0.456 µM) | 2.5 (≈ 2.92 µM) | – | > 40 | > 20 | 0.24 (≈ 0.281 µM) | Stable | Unstable | < 5 | Unstable | COC(=O)CC/C=C(\C)[C@@H](O)C/C=C/C=C/C=C/C=C/C=C/C(C)=C/[C@@H](O)[C@@H](C)[C@@H]1C[C@H](O)CCC[C@H](OC)C/C=C\C=C\C[C@H](C)[C@@H](O)[C@H](C)[C@@H](O)[C@H](C)[C@H](O)CC(=O)O1 [ETNANGIEN METHYL ESTER]
0.06 (≈ 0.0713 µM) | 1 (≈ 1.19 µM) | 0.12 (≈ 0.143 µM) | > 80 | > 80 | 0.03 (≈ 0.0357 µM) | Stable | Unstable | – | Unstable | CO[C@@H]1C/C=C\C=C\C[C@H](C)[C@@H](O)[C@H](C)[C@@H](O)[C@H](C)[C@H](O)CC(=O)O[C@H]([C@H](C)[C@H](O)/C=C(C)/C=C/C=C/C=C/C=C/C=C/C[C@H](O)/C(C)=C/CCC(=O)O)C[C@H](O)CCC1 [ETNANGIEN]
